According to US4348264A, “Photocatalyzed process for producing carbapenams and carbapen-2-ems” (Pfizer Inc., priority 1981, dated 1982):
≈ marks a conversion by molar mass, not a printed value. Like-named read-outs stand apart in the source and are kept apart here.

Columns and labels:
Type in all cases: cell-based
Bacillus subtilis = assay: Standard disc-plate method, zone of inhibition; conditions: Bacillus subtilis; 25 microgram discs
From the text: (§1) The utility of the various compounds as intermediates to other compounds of the present invention will be evident from the preceding discussion. The antibacterial activity of these compounds, reflecting their utility in the control of susceptible bacterial infections in man and animals, as animal feed additives for promotion of growth, or as preservatives of materials biodegraded by susceptible microorganisms, is best measured by the standard disc-plate method routinely employed in clinical laboratories for determining the sensitivity of microorganisms to antimicrobial substances. Sensitivity discs are prepared by dipping a standard 6.25 mm. paper disc into a solution of the compound to be tested (conc. 1 mg./ml.) in a volatile solvent (e.g. methylene chloride) and the disc dried, producing discs containing approximately 25 microg. of the compound. The discs are placed on the surface of agar growth media seeded with the test microorganism, previously plated into Petri dishes. The plates are incubated overnight at 35°-37° C. Activity of the test compound is reflected by a zone of inhibition of bacterial growth around the test disc. The diameter of this zone provides a quantitative measure of the activity of the antibacterial substance. The activity of various compounds of the present invention is summarized in Table I. For comparison, results obtained with 10 microg. discs of ampicillin and penicillin G are included as positive controls.

[1] = system: Staphylococcus aureus (Antibiotic Resistant); assay: Standard disc-plate method, zone of inhibition; conditions: Staphylococcus aureus; 25 microgram discs; antibiotic resistant
From the text: as §1

Staphylococcus aureus [2] = assay: Standard disc-plate method, zone of inhibition; conditions: Staphylococcus aureus; 25 microgram discs
From the text: as §1

Proteus morgani = assay: Serial dilution-tube method, MIC; conditions: brain heart infusion broth; read-out: Minimum Inhibitory Concentration
Citrobacter diversus = assay: Serial dilution-tube method, MIC; conditions: Citrobacter koseri; brain heart infusion broth; read-out: Minimum Inhibitory Concentration
Enterobacter cloacae = assay: Serial dilution-tube method, MIC; conditions: Enterobacter cloacae; brain heart infusion broth; read-out: Minimum Inhibitory Concentration
Serratia marcescens = assay: Serial dilution-tube method, MIC; conditions: Serratia marcescens; brain heart infusion broth; read-out: Minimum Inhibitory Concentration
Klebsiella pneumoniae = assay: Serial dilution-tube method, MIC; conditions: Klebsiella pneumoniae; brain heart infusion broth; read-out: Minimum Inhibitory Concentration
Pseudomonas aeruginosa = assay: Serial dilution-tube method, MIC; conditions: Pseudomonas aeruginosa; brain heart infusion broth; read-out: Minimum Inhibitory Concentration
[3] = system: Escherichia coli (Antibiotic Resistant); assay: Serial dilution-tube method, MIC; parameters: key to synergistic effect with cefazolin: b: Shows a synergistic effect when tested 1:1 with cefazolin; conditions: for MIC: Escherichia coli, brain heart infusion broth, read-out: Minimum Inhibitory Concentration
Escherichia coli [4] = assay: Serial dilution-tube method, MIC; parameters: key to synergistic effect with ampicillin: Shows a synergistic effect when tested 1:1 with ampicillin; conditions: for MIC: Escherichia coli, brain heart infusion broth, read-out: Minimum Inhibitory Concentration
[5] = system: Staphylococcus aureus (Antibiotic Resistant); assay: Serial dilution-tube method, MIC; parameters: key to synergistic effect with ampicillin: Shows a synergistic effect when tested 1:1 with ampicillin; conditions: for MIC: Staphylococcus aureus, brain heart infusion broth, read-out: Minimum Inhibitory Concentration; for synergistic effect with ampicillin: tested 1:1 with ampicillin
Staphylococcus aureus [6] = assay: Serial dilution-tube method, MIC; conditions: Staphylococcus aureus
Escherichia coli [7] = assay: Standard disc-plate method, zone of inhibition; conditions: Escherichia coli, 25 microgram discs
From the text: as §1

Vibrio percolans = assay: Standard disc-plate method, zone of inhibition; conditions: Comamonas terrigena, 25 microgram discs
From the text: as §1

Micrococcus luteus = assay: Standard disc-plate method, zone of inhibition; conditions: Micrococcus luteus; 25 microgram discs
From the text: as §1

[8] = brain heart infusion broth, read-out: Minimum Inhibitory Concentration

MIC (Proteus morgani) | MIC (Citrobacter diversus) | MIC (Enterobacter cloacae) | MIC (Serratia marcescens) | MIC (Klebsiella pneumoniae) | MIC (Pseudomonas aeruginosa) | MIC [3] | MIC (Escherichia coli [4]) | MIC [5] | MIC (Staphylococcus aureus [6]; [8]) | MIC (Staphylococcus aureus [6]; serial dilution tube test, read-out: minimum inhibitory concentration) | Compound | zone of inhibition at 25 µg/disc (Bacillus subtilis) | zone of inhibition at 25 µg/disc [1] | zone of inhibition at 25 µg/disc (Staphylococcus aureus [2]) | synergistic effect with cefazolin ([3]; tested 1:1 with cefazolin) | synergistic effect with ampicillin [5] | zone of inhibition at 25 µg/disc (Escherichia coli [7]) | zone of inhibition at 25 µg/disc (Vibrio percolans) | zone of inhibition at 25 µg/disc (Micrococcus luteus) | synergistic effect with ampicillin (Escherichia coli [4]; tested 1:1 with ampicillin)
> 200 µg/mL | > 200 µg/mL | > 200 µg/mL | > 200 µg/mL | > 200 µg/mL | > 200 µg/mL | > 200 µg/mL | > 200 µg/mL | > 200 µg/mL | > 200 µg/mL | > 200 µg/mL | CC1C(=O)C2CC(=O)N2C1C(=O)OCOC(=O)C(C)(C)C (stereo not drawn) [H H POM CH3 O I, Pivaloyloxymethyl 2-Methyl-1-oxocarbapenam-3-carboxylate] | 18 mm | 0 mm | 18 mm | b | a |  |  |  | 
> 200 µg/mL | > 200 µg/mL | > 200 µg/mL | > 200 µg/mL | > 200 µg/mL | > 200 µg/mL | > 200 µg/mL | > 200 µg/mL | > 200 µg/mL | > 200 µg/mL |  | COC1(NC(=O)COc2ccccc2)C(=O)N2C(C(=O)OCOC(=O)C(C)(C)C)C(C)C(=O)C21 (stereo not drawn) [PMA OMe POM CH3 O I, Pivaloyloxymethyl 6-Methoxy-2-methyl-1-oxo-6-(2-phenoxyacetamido)carbapenam-3-carboxylate] | 11 mm | 0 mm | 0 mm |  | a | 0 mm | 0 mm |  | 
> 200 µg/mL | > 200 µg/mL | > 200 µg/mL | > 200 µg/mL | > 200 µg/mL | > 200 µg/mL | > 200 µg/mL | > 200 µg/mL | > 200 µg/mL |  |  | CC1C(=O)C2C(NC(=O)COc3ccccc3)C(=O)N2C1C(=O)OCOC(=O)C(C)(C)C (stereo not drawn) [PMA H POM CH3 O I, Pivaloyloxymethyl 2-Methyl-1-oxo-6-(2-phenoxyacetamido)carbapenam-3-carboxylate] | 21 mm | 12 mm |  |  |  | 0 mm |  | 15 mm | 
50 µg/mL | > 200 µg/mL | 50 µg/mL | > 200 µg/mL | > 200 µg/mL | > 200 µg/mL | > 200 µg/mL | 100 µg/mL | 200 µg/mL | 50 µg/mL |  | CCN1CCN(C(=O)N[C@@H](C(=O)NC2C(=O)N3C(C(=O)O)C(C)C(O)C23)c2ccccc2)C(=O)C1=O (stereo partly drawn) [EPA H H CH3 H OH I, Sodium 1-Hydroxy-2-methyl-6-[2-phenyl-2-(4-ethyl-2,3-dioxopiperazine-1-carboxamido)acetamido]carbapenam-3-carboxylate] | 16 mm | 9 mm | 15 mm |  |  | 16 mm | 25 mm |  | 
≤ 0.39 µg/mL | 12.5 µg/mL (≈ 20.3 µM) | 12.5 µg/mL (≈ 20.3 µM) | 25 µg/mL (≈ 40.6 µM) | 12.5 µg/mL (≈ 20.3 µM) | 200 µg/mL (≈ 325 µM) | > 200 µg/mL | 6.25 µg/mL | > 200 µg/mL | 25 µg/mL (≈ 40.6 µM) |  | CCN1CCN(C(=O)N[C@@H](C(=O)NC2C(=O)N3C(C(=O)OCOC(=O)C(C)(C)C)C(C)C(O)C23)c2ccccc2)C(=O)C1=O (stereo partly drawn) [EPA H POM CH3 H OH I, Pivaloyloxymethyl 1-Hydroxy-2-methyl-6-[2-phenyl-2-(4-ethyl-2,3-dioxopiperazine-1-carboxamido)acetamido]carbapenam-3-carboxylate] | 17 mm | 10 mm | 18 mm |  |  | 20 mm | 24 mm |  | 
25 µg/mL (≈ 40.7 µM) | 100 µg/mL (≈ 163 µM) | 200 µg/mL (≈ 326 µM) | 100 µg/mL (≈ 163 µM) | 100 µg/mL (≈ 163 µM) | > 200 µg/mL | > 200 µg/mL | 100 µg/mL | > 200 µg/mL | 100 µg/mL (≈ 163 µM) |  | CCN1CCN(C(=O)N[C@@H](C(=O)NC2C(=O)N3C(C(=O)OCOC(=O)C(C)(C)C)C(C)C(=O)C23)c2ccccc2)C(=O)C1=O (stereo partly drawn) [EPA H POM CH3 O I, Pivaloyloxymethyl 2-Methyl-1-oxo-6-[2-phenyl-2-(4-ethyl-2,3-dioxopiperazine-1-carboxamido)acetamido]carbapenam-3-carboxylate] | 21 mm | 12 mm | 12 mm |  |  | 12 mm | 21 mm |  | a
> 200 µg/mL | > 200 µg/mL | > 200 µg/mL | > 200 µg/mL | > 200 µg/mL | > 200 µg/mL | > 200 µg/mL | > 200 µg/mL | > 200 µg/mL | > 200 µg/mL |  | CC1C(O)C2CC(=O)N2C1C(=O)OCOC(=O)C(C)(C)C (stereo not drawn) [H H POM CH3 H OH I, Pivaloyloxymethyl 1-Hydroxy-2-methylcarbapenam-3-carboxylate] | 0 mm | 0 mm | 0 mm |  |  |  |  |  | 
> 200 µg/mL | > 200 µg/mL | > 200 µg/mL | > 200 µg/mL | > 200 µg/mL | > 200 µg/mL | > 200 µg/mL | > 200 µg/mL | 100 µg/mL | 100 µg/mL (≈ 200 µM) |  | Cc1onc(-c2ccccc2)c1C(=O)NC1C(=O)N2C(C(=O)OCOC(=O)C(C)(C)C)C(C)C(O)C12 (stereo not drawn) [MPI H POM CH3 H OH I, Pivaloyloxymethyl 1-Hydroxy-2-methyl-6-(5-methyl-3-phenylisoxazole-4-carboxamido)carbapenam-3-carboxylate] | 16 mm | 14 mm | 15 mm |  |  | 0 mm | 13 mm |  | 
> 200 µg/mL | > 200 µg/mL | > 200 µg/mL | > 200 µg/mL | > 200 µg/mL | > 200 µg/mL | > 200 µg/mL | > 200 µg/mL | > 200 µg/mL | > 200 µg/mL |  | COC1(NC(=O)COc2ccccc2)C(=O)N2C(C(=O)OCOC(=O)C(C)(C)C)C(C)C(O)C21 (stereo not drawn) [PMA OMe POM CH3 H OH I, pivaloyloxymethyl 1-hydroxy-6-methoxy-2-methyl-6-(2-phenoxyacetamido)carbapenam-3-carboxylate] | 11 mm | 0 mm | 23 mm |  |  | 0 mm | 0 mm |  | 

Compound | MIC (Proteus morgani) | MIC (Citrobacter diversus) | MIC (Enterobacter cloacae) | MIC (Serratia marcescens) | MIC (Klebsiella pneumoniae) | MIC (Pseudomonas aeruginosa) | MIC [3] | MIC (Escherichia coli [4]) | MIC [5] | MIC (Staphylococcus aureus [6]; [8]) | MIC (Staphylococcus aureus [6]; serial dilution tube test, read-out: minimum inhibitory concentration) | zone of inhibition at 25 µg/disc (Bacillus subtilis) | zone of inhibition at 25 µg/disc [1] | zone of inhibition at 25 µg/disc (Staphylococcus aureus [2]) | synergistic effect with cefazolin ([3]; tested 1:1 with cefazolin) | synergistic effect with ampicillin [5] | zone of inhibition at 25 µg/disc (Escherichia coli [7]) | zone of inhibition at 25 µg/disc (Vibrio percolans) | zone of inhibition at 25 µg/disc (Micrococcus luteus) | synergistic effect with ampicillin (Escherichia coli [4]; tested 1:1 with ampicillin)
CC(=O)OC1C(C)C(C(=O)OCOC(=O)C(C)(C)C)N2C(=O)C(NC(=O)COc3ccccc3)C12 (stereo not drawn) [PMA H POM CH3 H OAc I, Pivaloyloxymethyl 1-Acetoxy-2-methyl-6-(2-phenoxyacetamido)carbapenam-3-carboxylate] | > 200 µg/mL | > 200 µg/mL | > 200 µg/mL | > 200 µg/mL | > 200 µg/mL | > 200 µg/mL | > 200 µg/mL | > 200 µg/mL | > 200 µg/mL | > 200 µg/mL |  | 16 mm | 0 mm | 11 mm |  |  | 0 mm |  | 0 mm | 
CC(=O)OC1C(C)C(C(=O)O)N2C(=O)CC12 (stereo not drawn) [H H H CH3 H OAc I, 1-Acetoxy-2-methylcarbapenam-3-carboxylic Acid] | > 200 µg/mL | > 200 µg/mL | > 200 µg/mL | > 200 µg/mL | > 200 µg/mL | > 200 µg/mL | > 200 µg/mL | > 200 µg/mL | > 2000 µg/mL | > 200 µg/mL |  | 12 mm | 0 mm | 0 mm |  |  |  |  |  | 
